Measured values published in ChEMBL document CHEMBL1130752, “Quaternary substituted PDE IV inhibitors II: the synthesis and in vitro evaluation of a novel series of gamma-lactams” (Bioorg Med Chem Lett, 1998).

Columns and labels:
[1] = target: T1, Phosphodiesterase 4 (Homo sapiens, UniProt P27815+Q08499+Q07343+Q08493); assay: In vitro inhibition of phosphodiesterase (PDE IV) from guinea pig macrophages.; assay type: protein assay, Cavia porcellus; conditions: target entry is the homologue from another species
[2] = target: T1, Phosphodiesterase 4; assay: Affinity for phosphodiesterase (PDE IV) in guinea pig brain membrane using [3H]rolipram displacement.; assay type: cell membranes, Cavia porcellus; conditions: target entry is the homologue from another species

Row | SMILES | IC50 [1] | Ki [2]
1 | COc1ccc(C2(Cc3cc[n+]([O-])cc3)CCN(C(=O)OC(C)(C)C)C2=O)cc1OC1CCCC1 (stereo unspecified) | 59 nM | 217 nM
2 | COc1ccc(C2(Cc3ccncc3)CCN(CC3CCCCC3)C2=O)cc1OC1CCCC1 (stereo unspecified) | 48 nM | 43 nM
3 | COc1ccc(C2(Cc3ccncc3)CCN(C(=O)N(C)C)C2=O)cc1OC1CCCC1 (stereo unspecified) | 319 nM | 274 nM
4 | COc1ccc(C2(Cc3ccncc3)CCN(C(=O)OC(C)(C)C)C2)cc1OC1CCCC1 (stereo unspecified) | 807 nM | 470 nM
5 | COc1ccc(C2(Cc3ccncc3)CCNC2=O)cc1OC1CCCC1 (stereo unspecified) | 800 nM | 210 nM
6 | COc1ccc(C2(Cc3ccccc3)CCN(C(=O)OC(C)(C)C)C2=O)cc1OC1CCCC1 (stereo unspecified) | 220 nM | 2996 nM
7 | COC(=O)N1CCC(Cc2ccncc2)(c2ccc(OC)c(OC3CCCC3)c2)C1=O (stereo unspecified) | 293 nM | 822 nM
8 | COc1ccc(C2(Cc3ccccc3)CCNC2=O)cc1OC1CCCC1 (stereo unspecified) | 1000 nM | 787 nM
9 | COc1ccc(C2CCN(C(=O)OC(C)(C)C)C2=O)cc1OC1CCCC1 (stereo unspecified) | 700 nM | 337 nM
10 | CCCCN1CCC(Cc2ccncc2)(c2ccc(OC)c(OC3CCCC3)c2)C1=O (stereo unspecified) | 123 nM | 137 nM
11 | COc1ccc(C2(Cc3ccncc3)CCN(C(C)=O)C2=O)cc1OC1CCCC1 (stereo unspecified) | 461 nM | 367 nM
12 | COc1ccc(C2(Cc3ccncc3)CCN(Cc3ccncc3)C2=O)cc1OC1CCCC1 (stereo unspecified) | 401 nM | 443 nM
13 | CCOC(=O)N1CCC(Cc2ccncc2)(c2ccc(OC)c(OC3CCCC3)c2)C1=O (stereo unspecified) | 137 nM | 139 nM
14 | COc1ccc(C2(Cc3ccncc3)CCN(Cc3ccccc3)C2=O)cc1OC1CCCC1 (stereo unspecified) | 56 nM | 51 nM
15 | COc1ccc(C2(Cc3ccncc3)CCN(C(=O)OC(C)(C)C)C2=O)cc1OC1CCCC1 (stereo unspecified) | 6.3 nM | 7.5 nM
16 | COc1ccc(C2CCNC2=O)cc1OC1CCCC1 (stereo unspecified) | 5000 nM | > 3745 nM
17 | COc1ccc(C2(Cc3ccncc3)CCN(Cc3ccc4ccccc4c3)C2=O)cc1OC1CCCC1 (stereo unspecified) | 17 nM | 4.3 nM
18 | COc1ccc(C2(Cc3cc[n+]([O-])cc3)CCNC2=O)cc1OC1CCCC1 (stereo unspecified) | 1600 nM | 2247 nM
19 | COc1ccc(C2(CC#N)CCN(C(=O)OC(C)(C)C)C2=O)cc1OC1CCCC1 (stereo unspecified) | 82 nM | 476 nM
20 | COc1ccc(C2(Cc3ccncc3)CCN(Cc3cccc4ccccc34)C2=O)cc1OC1CCCC1 (stereo unspecified) | 293 nM | 822 nM
21 | COc1ccc(C2(Cc3ccncc3)CCN(CCC(C)C)C2=O)cc1OC1CCCC1 (stereo unspecified) | 81 nM | 80 nM
22 | COc1ccc(C2(Cc3ccncc3)CCN(C(=O)OC(C)C)C2=O)cc1OC1CCCC1 (stereo unspecified) | 44 nM | 113 nM
23 | COc1ccc(C2(Cc3ccncc3)CCN(S(=O)(=O)c3ccc(C)cc3)C2=O)cc1OC1CCCC1 (stereo unspecified) | 61 nM | 217 nM
